The results in this text go back to ChEMBL document CHEMBL5465560, “Selectivity Literature for EUbOPEN Chemogenomic Library” (2024).

The IC50 is the point on the concentration scale where inhibition reaches its midpoint. A low value points to greater potency in that assay.

Assay [1] addresses T1, Serine/threonine-protein kinase RIO1 (Homo sapiens) (UniProt Q9BRS2).
T1 sequence (whole entry): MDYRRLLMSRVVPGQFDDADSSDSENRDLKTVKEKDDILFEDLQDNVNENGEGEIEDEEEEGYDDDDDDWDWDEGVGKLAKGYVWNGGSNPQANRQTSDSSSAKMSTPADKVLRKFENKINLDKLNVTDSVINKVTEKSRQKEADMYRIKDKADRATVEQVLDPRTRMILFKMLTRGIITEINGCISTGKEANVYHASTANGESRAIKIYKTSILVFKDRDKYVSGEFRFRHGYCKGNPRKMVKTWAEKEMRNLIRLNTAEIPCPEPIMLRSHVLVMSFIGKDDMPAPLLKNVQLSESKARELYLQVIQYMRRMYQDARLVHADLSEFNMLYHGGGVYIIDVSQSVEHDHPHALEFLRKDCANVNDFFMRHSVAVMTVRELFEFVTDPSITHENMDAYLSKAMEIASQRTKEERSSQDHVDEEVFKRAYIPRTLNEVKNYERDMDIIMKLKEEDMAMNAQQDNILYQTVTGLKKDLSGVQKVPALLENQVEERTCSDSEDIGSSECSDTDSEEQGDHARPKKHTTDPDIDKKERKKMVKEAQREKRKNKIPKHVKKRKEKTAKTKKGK
Nature of the assay: Selectivity interaction (Ambit KINOMEscan and KiNATiv profiling in Jurkat cells) EUB0000090b RIOK1. Format: cell-based. The settings on record: at 1 µM.

The target of assay [2] is T2, Mitogen-activated protein kinase kinase kinase 3 (Homo sapiens) (UniProt Q99759).
T2 sequence (whole entry): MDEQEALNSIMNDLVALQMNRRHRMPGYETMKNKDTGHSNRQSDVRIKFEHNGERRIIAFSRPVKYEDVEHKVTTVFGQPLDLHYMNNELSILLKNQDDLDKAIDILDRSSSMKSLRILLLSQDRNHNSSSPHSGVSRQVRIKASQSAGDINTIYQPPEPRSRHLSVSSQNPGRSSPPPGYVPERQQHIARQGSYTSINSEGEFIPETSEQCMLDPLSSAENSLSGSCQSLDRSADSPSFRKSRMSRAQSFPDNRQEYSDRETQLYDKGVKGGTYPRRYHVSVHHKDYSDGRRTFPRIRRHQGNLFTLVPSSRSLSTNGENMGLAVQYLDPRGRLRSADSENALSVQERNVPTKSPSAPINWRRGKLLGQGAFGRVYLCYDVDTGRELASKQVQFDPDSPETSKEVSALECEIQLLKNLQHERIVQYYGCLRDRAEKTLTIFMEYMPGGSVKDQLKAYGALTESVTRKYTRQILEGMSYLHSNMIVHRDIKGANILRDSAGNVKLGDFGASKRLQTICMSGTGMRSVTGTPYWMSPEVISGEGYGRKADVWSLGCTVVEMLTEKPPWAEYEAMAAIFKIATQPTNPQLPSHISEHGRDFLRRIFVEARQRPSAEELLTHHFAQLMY
Nature of the assay: Selectivity interaction (Ambit KINOMEscan and KiNATiv profiling in Jurkat cells) EUB0000090b MAP3K3. Format: cell-based. The note with it: at 1 µM.

The target in assay [3] is Receptor-type tyrosine-protein kinase FLT3 (Homo sapiens) (UniProt P36888). Put plainly: Selectivity interaction (KinomeScan (DiscoverX)) EUB0000666a FLT3. The note with it: at 10 µM.
Assay [4] has as its target T3, Protein kinase C epsilon type (Homo sapiens) (UniProt Q02156).
T3 sequence (whole entry): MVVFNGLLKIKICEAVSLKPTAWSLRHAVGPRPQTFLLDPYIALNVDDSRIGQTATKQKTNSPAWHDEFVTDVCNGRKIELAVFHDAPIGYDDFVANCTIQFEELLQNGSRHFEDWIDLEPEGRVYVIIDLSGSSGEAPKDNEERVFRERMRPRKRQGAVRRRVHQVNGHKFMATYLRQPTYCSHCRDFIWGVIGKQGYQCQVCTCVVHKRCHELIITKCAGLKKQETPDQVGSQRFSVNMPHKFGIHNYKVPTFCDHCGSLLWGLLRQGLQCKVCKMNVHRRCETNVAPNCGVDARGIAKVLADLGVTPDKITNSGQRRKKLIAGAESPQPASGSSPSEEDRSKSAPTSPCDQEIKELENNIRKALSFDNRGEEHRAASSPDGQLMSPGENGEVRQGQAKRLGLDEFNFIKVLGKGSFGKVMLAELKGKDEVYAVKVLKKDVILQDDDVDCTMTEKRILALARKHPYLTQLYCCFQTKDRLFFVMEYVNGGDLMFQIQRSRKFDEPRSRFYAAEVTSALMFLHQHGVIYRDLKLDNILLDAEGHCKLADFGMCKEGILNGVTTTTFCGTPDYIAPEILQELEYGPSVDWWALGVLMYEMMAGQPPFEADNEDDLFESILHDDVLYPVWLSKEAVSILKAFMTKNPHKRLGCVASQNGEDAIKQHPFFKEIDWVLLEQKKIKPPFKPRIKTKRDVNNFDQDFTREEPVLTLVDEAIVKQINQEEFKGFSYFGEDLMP
Nature of the assay: Selectivity interaction (KinomeScan (DiscoverX)) EUB0000607a PRKCE. The note with it: at 10 µM.

Assay [5] addresses Glycogen synthase kinase-3 beta (Homo sapiens, UniProt P49841). Put plainly: Selectivity interaction (KinomeScan (DiscoverX)) EUB0000607a GSK3B. The note with it: at 10 µM.
Assay [6] deals with Serine/threonine-protein kinase B-raf (Homo sapiens) (UniProt P15056). Nature of the assay: Selectivity interaction (Kinase panel (Invitrogen)) EUB0000639a BRAF. The settings on record: at 200 nM.
Assay [7] deals with Tyrosine-protein kinase BTK (Homo sapiens, UniProt Q06187). Put plainly: Selectivity interaction (Kinase panel (33PanQinase(R) Activity Assay)) EUB0000877a BTK.
Assay [8] deals with Serine/threonine-protein kinase Nek4 (Homo sapiens) (UniProt P51957). Nature of the assay: Selectivity interaction (KinomeScan (DiscoverX)) EUB0000595a NEK4. The note with it: at 10 µM.

Where only a bound is given, the exact number is not on record here.

Glycogen synthase kinase-3 beta, sequence (P49841 whole entry, looked up): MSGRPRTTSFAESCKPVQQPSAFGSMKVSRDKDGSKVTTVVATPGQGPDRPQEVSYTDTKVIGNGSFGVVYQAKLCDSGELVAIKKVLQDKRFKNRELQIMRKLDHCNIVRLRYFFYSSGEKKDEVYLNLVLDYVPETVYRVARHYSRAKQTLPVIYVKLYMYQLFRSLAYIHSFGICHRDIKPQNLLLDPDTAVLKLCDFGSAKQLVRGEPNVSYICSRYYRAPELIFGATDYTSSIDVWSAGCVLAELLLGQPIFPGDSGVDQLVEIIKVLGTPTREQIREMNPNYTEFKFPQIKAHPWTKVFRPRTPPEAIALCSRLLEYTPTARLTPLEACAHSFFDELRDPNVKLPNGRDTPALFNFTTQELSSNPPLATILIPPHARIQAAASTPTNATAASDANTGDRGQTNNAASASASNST
Receptor-type tyrosine-protein kinase FLT3 (Homo sapiens), sequence (P36888 whole entry): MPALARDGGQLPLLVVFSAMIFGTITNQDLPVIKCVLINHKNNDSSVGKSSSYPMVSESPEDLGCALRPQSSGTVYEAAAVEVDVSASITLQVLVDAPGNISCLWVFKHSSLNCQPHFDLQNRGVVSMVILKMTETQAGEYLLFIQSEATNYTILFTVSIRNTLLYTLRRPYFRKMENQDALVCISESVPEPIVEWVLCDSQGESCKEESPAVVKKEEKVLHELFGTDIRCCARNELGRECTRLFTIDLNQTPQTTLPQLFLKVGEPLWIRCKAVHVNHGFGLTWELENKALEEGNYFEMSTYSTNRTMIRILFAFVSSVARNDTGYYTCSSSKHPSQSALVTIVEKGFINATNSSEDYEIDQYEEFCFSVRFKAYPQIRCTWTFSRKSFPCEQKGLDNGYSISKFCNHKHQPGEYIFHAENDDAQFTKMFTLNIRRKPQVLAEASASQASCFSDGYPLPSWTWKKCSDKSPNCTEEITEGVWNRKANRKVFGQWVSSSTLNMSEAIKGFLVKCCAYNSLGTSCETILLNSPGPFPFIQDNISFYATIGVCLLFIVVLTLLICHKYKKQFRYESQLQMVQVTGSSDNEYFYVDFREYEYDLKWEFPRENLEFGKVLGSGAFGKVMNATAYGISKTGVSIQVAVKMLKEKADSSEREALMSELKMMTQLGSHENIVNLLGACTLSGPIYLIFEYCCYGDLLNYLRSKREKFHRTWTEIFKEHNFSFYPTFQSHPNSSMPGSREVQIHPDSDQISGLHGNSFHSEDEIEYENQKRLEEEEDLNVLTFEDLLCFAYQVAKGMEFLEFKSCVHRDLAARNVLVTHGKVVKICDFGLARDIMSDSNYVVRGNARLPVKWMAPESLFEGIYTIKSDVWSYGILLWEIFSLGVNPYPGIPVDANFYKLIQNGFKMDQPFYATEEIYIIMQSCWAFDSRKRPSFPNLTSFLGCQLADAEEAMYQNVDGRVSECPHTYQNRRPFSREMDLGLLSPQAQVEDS
Serine/threonine-protein kinase Nek4 (Homo sapiens), sequence (P51957 whole entry, looked up): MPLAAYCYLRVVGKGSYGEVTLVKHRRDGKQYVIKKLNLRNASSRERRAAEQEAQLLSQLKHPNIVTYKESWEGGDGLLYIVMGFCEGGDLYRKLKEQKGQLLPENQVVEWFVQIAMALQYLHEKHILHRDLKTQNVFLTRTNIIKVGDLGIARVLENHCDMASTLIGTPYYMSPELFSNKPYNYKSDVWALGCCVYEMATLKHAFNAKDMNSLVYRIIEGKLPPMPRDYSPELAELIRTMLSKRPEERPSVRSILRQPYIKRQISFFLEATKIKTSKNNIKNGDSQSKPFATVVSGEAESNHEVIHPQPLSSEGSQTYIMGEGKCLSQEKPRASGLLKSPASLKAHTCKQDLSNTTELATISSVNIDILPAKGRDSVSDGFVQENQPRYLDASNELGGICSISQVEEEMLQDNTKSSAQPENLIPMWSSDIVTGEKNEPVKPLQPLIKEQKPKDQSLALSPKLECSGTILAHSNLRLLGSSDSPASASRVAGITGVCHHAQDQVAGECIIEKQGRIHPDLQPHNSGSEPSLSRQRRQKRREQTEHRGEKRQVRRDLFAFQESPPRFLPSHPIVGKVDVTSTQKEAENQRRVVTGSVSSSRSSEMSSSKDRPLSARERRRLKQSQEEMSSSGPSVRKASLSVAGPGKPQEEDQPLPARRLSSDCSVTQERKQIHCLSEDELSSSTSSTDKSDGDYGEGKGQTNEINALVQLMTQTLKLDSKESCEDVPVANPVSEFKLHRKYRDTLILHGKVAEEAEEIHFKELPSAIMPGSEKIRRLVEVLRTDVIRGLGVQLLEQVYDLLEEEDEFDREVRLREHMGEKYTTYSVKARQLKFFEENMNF
Tyrosine-protein kinase BTK, sequence (Q06187 whole entry): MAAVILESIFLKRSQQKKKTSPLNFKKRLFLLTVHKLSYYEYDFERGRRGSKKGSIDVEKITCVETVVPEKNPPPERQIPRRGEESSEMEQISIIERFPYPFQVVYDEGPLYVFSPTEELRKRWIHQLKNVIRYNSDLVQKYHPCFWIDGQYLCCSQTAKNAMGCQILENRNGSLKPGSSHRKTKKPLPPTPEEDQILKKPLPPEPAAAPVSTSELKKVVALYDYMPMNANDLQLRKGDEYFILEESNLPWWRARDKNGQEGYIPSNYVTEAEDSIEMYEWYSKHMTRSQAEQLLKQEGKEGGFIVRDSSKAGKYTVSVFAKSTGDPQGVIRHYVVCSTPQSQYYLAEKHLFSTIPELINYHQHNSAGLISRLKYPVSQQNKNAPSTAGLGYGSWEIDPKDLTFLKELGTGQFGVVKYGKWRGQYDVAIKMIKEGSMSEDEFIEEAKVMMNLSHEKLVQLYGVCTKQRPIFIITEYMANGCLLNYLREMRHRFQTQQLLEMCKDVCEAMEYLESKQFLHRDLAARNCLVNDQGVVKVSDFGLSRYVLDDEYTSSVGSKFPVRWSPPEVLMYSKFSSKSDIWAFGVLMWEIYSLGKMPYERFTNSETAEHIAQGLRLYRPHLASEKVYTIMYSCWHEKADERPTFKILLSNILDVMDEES
Serine/threonine-protein kinase B-raf (Homo sapiens), sequence (P15056 whole entry): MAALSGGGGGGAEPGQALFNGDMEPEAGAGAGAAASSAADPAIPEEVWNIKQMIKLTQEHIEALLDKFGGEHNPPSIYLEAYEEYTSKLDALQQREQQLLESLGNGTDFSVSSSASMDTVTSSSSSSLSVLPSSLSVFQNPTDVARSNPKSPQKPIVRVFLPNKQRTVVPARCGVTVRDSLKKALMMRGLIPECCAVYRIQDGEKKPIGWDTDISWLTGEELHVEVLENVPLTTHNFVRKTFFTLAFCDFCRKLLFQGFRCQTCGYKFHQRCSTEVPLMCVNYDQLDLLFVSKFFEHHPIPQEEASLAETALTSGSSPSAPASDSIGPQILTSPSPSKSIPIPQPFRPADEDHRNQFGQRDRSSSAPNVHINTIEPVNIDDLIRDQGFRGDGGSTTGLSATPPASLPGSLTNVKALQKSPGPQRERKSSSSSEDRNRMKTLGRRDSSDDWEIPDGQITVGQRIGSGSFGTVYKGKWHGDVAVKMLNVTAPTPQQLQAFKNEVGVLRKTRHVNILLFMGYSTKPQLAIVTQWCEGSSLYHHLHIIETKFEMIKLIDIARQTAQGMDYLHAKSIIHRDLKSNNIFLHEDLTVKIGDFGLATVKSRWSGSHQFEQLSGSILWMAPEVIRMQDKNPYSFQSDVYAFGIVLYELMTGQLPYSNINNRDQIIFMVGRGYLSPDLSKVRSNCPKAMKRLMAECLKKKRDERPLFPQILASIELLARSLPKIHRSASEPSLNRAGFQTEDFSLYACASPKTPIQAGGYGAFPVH

Turning to `CN(C)C/C=C/C(=O)Nc1ccc(C(=O)N2CCCC(Nc3ncc(Cl)c(-c4c[nH]c5ccccc45)n3)C2)cc1` (stereo not drawn), the % of control in assay [1] worked out at 100%; in assay [2], 90%.

Consider `O=C(NOC[C@H](O)CO)c1ccc(F)c(F)c1Nc1ccc(I)cc1F`, for which the % of control in assay [3] was 80%.

As to `CNC(=O)Nc1ccc(-c2nc(N3CC4CCC(C3)O4)c3cnn(C4CCC5(CC4)OCCO5)c3n2)cc1`, the figures for the % of control in assay [4] and in assay [5] were 100% and 69%, respectively.

With `CC[C@@H]1[C@H](F)C(=O)N[C@@H]1COc1nccc2cc(C(N)=O)c(OC)cc12` [ZIMLOVISERTIB], in assay [6], the % of inhibition was 8.97%.

Compound `CCC(=O)N1CC[C@H](Nc2ncnc3c2CN(c2cnc(OC)c(C(F)(F)F)c2)CC3)C1` [LENIOLISIB] came in with an IC50 in assay [7] of over 10 µM.

`COCC(=O)NC/C=C/c1ccc2ncnc(Nc3ccc(Oc4ccc(C)nc4)c(C)c3)c2c1` [CP-724714]: in assay [8], the % of control was 100%.
